Measured values: patent US20180085386A1, “URIDINE MONOPHOSPHATE AND TRIPHOSPHATE DERIVATIVES, COMPOSITIONS AND METHODS OF USE” (Tufts University, priority 2016, published 2018)
Where two headings read alike, the source gives them in different places. Each block holds one compound with its values, some of them ahead of it.

Experiments:
THP-1 cells = experiment: Cytokine release from human THP-1 cells (multiplex analysis of culture medium); type: cell-based; details: 24 hours, vs vehicle
Experimental: THP-1 cells, a human cell line derived from monocytes, were treated in vitro with vehicle, the P2Y6 receptor antagonist MRS 2578, or compound 5, singly or in combination. THP-1 cells were seeded in 24 well plates at a density of 4×10^5 cells/well in culture medium for 24 hours. Thereafter, vehicle, compound 5, or MRS 2578 (singly or in combination) were added to the cultures for 24 hours. Subsequently the culture medium was aspirated and subjected to multiplex cytokine analysis. Data are presented as means+/−sem. MRS 2578 has a molecular weight of about 472 and is also described using CAS number 711019-86-2.

P2Y6 receptor [1] = target: T1, P2Y6 receptor (Homo sapiens, UniProt Q15077); details: cited from earlier work
PSAPP mice [2] = experiment: Plaque load in cortex and hippocampus by amyloid beta immunostaining; type: in vivo, mouse; details: for immunoreactivity of β1-40 in cortex: FIG. 2A; for immunoreactivity of β1-40 in hippocampus: FIG. 2B
Experimental: PSB0474 was systemically administered to PSAPP mice via intraperitoneal injection for 2, 4 and 6 consecutive days. In one group, prior to evaluation and following to administration for 6 consecutive days, treatment was suspended for two weeks (6+2 weeks group). Brains were then fixed and plaque load was evaluated by immunostaining with the amyloid beta specific antibodies: β1-40 and β1-42. Representative images of plaque load in cortex and hippocampus from animals that received injections of PSB0474 according to the foregoing injection schedules are shown in FIGS. 1(A)-(D). […] Whereas, when administration of PSB0474 was stopped for 2 weeks following six consecutive days of treatment (denoted as the 6+2 weeks group), β1-40 staining rebounded; although to a level lower than observed in mice treated with saline as a vehicle control. […] FIGS. 2C-2F depict data obtained following administration of different dosages of PSB0474.
To generate these graphs showing plaque load, mice were euthanized, brain sections cut and antibodies directed against Aβ42 were used to disclose Aβ plaques. Images were acquired digitally and an algorithm was applied to threshold the image so that plaques were isolated from the background. The algorithm then calculated the percent area of the field of view occupied by the plaques.
Brain samples were collected for Abeta analysis with immunostaining. Brains samples were collected after transcardial perfusion with phosphate buffer and 4% paraformaldehyde. Floating brain sections (40 micron) were collected using a microtome. Immunostaining for […] and Aβ42 were performed according to previously established protocol. Images with DAB staining were collected with brightfield microscopy and analyzed with ImageJ Macro. All data analysis and statistics were performed in GraphPad Prism 6.0.
(§1) In this study, treatment of PSAPP mice commenced when the mice were pre-symptomatic. Specifically, treatment was initiated when the mice were approximately 3 months old. PSAPP mice were treated for 100 days with daily, intraperitoneal injections of 10 μg/kg of compound 5 or vehicle. Following treatment, mice were assessed in a fear conditioning task for memory formation. Subsequently, plaque burden in the mice was also evaluated. The data provided in Examples 16 and 17 is for 19 vehicle treated mice and 22 compound treated mice. The data provided for the vehicle-treated group is the average across those mice, and error bars depict the standard error (SEM). Similarly, the data provided for the compound-treated group is the average across those mice, and the error bars depict the SEM.
as §1, with “assessed for the following: concentration of circulating pro-inflammatory cytokines; amyloid beta load (e.g., plaque burden); and memory” for “assessed”, “formation.” for “formation. Subsequently, plaque burden in the mice was also evaluated.”, “Example 18” for “Examples 16 and 17”, “18” for “19”, “20” for “22”, “SEM. Mice were first evaluated in the fear conditioning task experiment. Subsequently, plasma was taken for multiplex cytokine analysis of circulating levels of cytokine in the plasma. Finally, plaque burden was assessed in the cortex and hippocampus of the mice.” for “SEM.”
In this study, treatment of PSAPP mice commenced after the mice were already symptomatic. Specifically, treatment was initiated when the mice were approximately 6 months old. […]

PSAPP mice [3] = experiment: Tolerability of increased dose of PSB0474 in PSAPP mice; type: in vivo, mouse; details: 1000× increase in dose
P2Y6 receptor [4] = target: T1, P2Y6 receptor; experiment: Activation of P2Y6 receptor: receptor induced Ca2+ changes with fluo-4 in 1321N1 cells; type: cell-based; set-up: expressed in transfected cells; host or cells: 1321N1 human astrocytoma cells
Experimental: (§2) Nucleoside disphosphate analogs of the foregoing compounds were tested for activation of P2Y6 receptor by measuring receptor induced Ca^2+ changes with the fluorescent Ca^2+ indicator fluo-4. 1321N1 human astrocytoma cell lines either expressing P2Y2, P2Y4 or P2Y6 receptors were plated into 24-well plates. Two days after plating, fluorometric measurements were made and responses of cells to a serial dilution of compound were determined. P2Y6 receptor mediated Ca^2+ fluorescent change was determined by normalized accumulation of fluorescent change of 3 timepoints after compound administration subtracted by value from ACSF control. Changes in fluorescent intensity were plotted corresponding to compound concentration in GraphPad. Dose-response curve and EC50 for each compound was estimated using nonlinear curve fit and Sigmoidal dose-response analysis. […]
(§3) Synthetic compounds were tested for activation of P2Y6 receptor by measuring receptor induced Ca^2+ changes with the fluorescent Ca^2+ indicator fluo-4, and results are shown in FIGS. 3(A)-(K). […] Two days after plating, fluorometric measurements were made and responses of cells to a serial dilution of compound were determined. P2Y6 receptor mediated Ca^2+ fluorescent change was determined by normalized accumulation of fluorescent change of 3 timepoints after compound administration subtracted by value from ACSF control. […]

P2Y2 receptor = target: T2, P2Y2 receptor (Homo sapiens, UniProt P41231); experiment: Ca2+ mobilizing effect (fluo-4) in 1321N1 cells expressing P2Y2 receptor; type: cell-based
T2 construct: expressed in transfected cells; host or cells: 1321N1 human astrocytoma cells
Experimental: as §2, §3

P2Y4 receptor = target: T3, P2Y4 receptor (Homo sapiens, UniProt P51582); experiment: Ca2+ mobilizing effect (fluo-4) in 1321N1 cells expressing P2Y4 receptor; type: cell-based
T3 construct: expressed in transfected cells; host or cells: 1321N1 human astrocytoma cells
Experimental: as §2, §3

T1 sequence (Q15077 whole entry): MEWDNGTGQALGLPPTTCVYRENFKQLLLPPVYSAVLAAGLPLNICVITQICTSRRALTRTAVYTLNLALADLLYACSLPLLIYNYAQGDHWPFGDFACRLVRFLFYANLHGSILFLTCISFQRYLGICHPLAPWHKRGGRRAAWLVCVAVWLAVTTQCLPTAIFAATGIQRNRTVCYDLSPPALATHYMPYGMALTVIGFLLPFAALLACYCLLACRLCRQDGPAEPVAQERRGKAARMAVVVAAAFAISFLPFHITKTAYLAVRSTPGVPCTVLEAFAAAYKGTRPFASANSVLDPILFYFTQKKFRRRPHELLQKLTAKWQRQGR
T3 sequence (P51582 whole entry): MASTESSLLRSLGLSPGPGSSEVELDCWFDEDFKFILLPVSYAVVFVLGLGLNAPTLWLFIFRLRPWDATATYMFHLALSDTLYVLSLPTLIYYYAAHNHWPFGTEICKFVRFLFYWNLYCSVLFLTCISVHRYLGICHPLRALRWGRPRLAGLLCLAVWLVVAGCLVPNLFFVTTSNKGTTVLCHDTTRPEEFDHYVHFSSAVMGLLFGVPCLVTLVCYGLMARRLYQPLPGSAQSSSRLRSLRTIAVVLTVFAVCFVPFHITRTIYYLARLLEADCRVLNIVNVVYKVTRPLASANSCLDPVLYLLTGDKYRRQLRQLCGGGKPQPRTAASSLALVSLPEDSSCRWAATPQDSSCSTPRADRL
T2 sequence (P41231 whole entry): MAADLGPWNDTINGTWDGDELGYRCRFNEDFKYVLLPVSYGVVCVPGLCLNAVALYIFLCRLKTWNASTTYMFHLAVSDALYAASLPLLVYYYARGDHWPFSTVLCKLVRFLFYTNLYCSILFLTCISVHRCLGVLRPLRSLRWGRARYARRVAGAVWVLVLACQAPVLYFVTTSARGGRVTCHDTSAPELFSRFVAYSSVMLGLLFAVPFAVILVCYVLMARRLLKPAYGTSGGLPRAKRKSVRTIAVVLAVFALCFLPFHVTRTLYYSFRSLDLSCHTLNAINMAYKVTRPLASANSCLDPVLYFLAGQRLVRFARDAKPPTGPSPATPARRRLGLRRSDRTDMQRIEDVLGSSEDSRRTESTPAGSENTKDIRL

SMILES: S=C=Nc1cccc(NC(=S)NCCCCNC(=S)Nc2cccc(N=C=S)c2)c1 [MRS 2578]
- release of fractalkine into culture media (THP-1 cells; FIG. 18A): increased
- release of PDGF-BB into culture media (THP-1 cells; FIG. 18B): increased
- release of IL-7 into culture media (THP-1 cells; MRS 2578 alone, FIG. 18C, FIG. 19): increased

SMILES: O=C(Cn1c(=O)ccn([C@@H]2O[C@H](COP(=O)(O)OP(=O)(O)O)[C@@H](O)[C@H]2O)c1=O)c1ccccc1 [3-phenacyl-UDP, reference compound]
- EC50 (P2Y6 receptor [1]; P2Y6 receptor agonist): 70 nM
- selectivity for P2Y6 receptor (P2Y6 receptor [1]): > 500 fold
- β1-40 staining (PSAPP mice [2]; 6 consecutive days, then stopped for 2 weeks (6+2 weeks group), still lower than saline control): rebounded
- effects on the efficacy endpoint (plaque load) (PSAPP mice [2]; higher dose of 1 mg/kg, FIGS. 2C-2F): smaller effects
- immunoreactivity of β1-40 in cortex (PSAPP mice [2]; i.p. for 4 consecutive days): significantly decreased
- immunoreactivity of β1-40 in hippocampus (PSAPP mice [2]; i.p. for 4 consecutive days): significantly decreased
- immunoreactivity of β1-40 in cortex (PSAPP mice [2]; i.p. for 6 consecutive days): significantly decreased
- immunoreactivity of β1-40 in hippocampus (PSAPP mice [2]; i.p. for 6 consecutive days): significantly decreased
- detrimental effects to the animal (PSAPP mice [3]): did not cause detrimental effects

- EC50 (P2Y6 receptor [4]; 1321N1 human astrocytoma cells expressing P2Y6, fluo-4 Ca2+ fluorescence): 12 nM
- ability to elevate Ca^2+ signals in P2Y6 receptor expressing cells (P2Y6 receptor [4]; with addition of the P2Y6 antagonist MRS2578): attenuated
- elevating Ca^2+ levels in P2Y2 receptor expressing cells (P2Y2 receptor): not effective
- elevating Ca^2+ levels in P2Y4 receptor expressing cells (P2Y4 receptor): not effective
SMILES: O=c1ccn(C2OC(COP(=O)(O)OP(=O)(O)O)C(O)[C@@H]2O)c(=O)n1Cc1noc2ccccc12 (stereo partly shown)
